Data: patent publication US20160168140A1, “HETEROCYCLIC COMPOUNDS AS ANTIBIOTIC POTENTIATORS” (priority 2014, published 2016)
Where two headings read alike, the source gives them in different places.

Legend:
Proteus vulgaris = assay: Colistin MIC / MIC shift with compound at 10 μM (isolate panel, Table 19); format: cell-based; conditions: Proteus vulgaris 6240, Colistin-R
Staphylococcus aureus = assay: as above; format: cell-based; conditions: for Colistin & Cmpd MIC shift / Colistin MIC with compound: compound at 10 μM
Burkholderia cepacia = assay: as above; format: cell-based; conditions: Burkholderia cepacia 547, Colistin-R
[1] = system: Acinetobacter baumannii (Ab23); assay: MIC shift assay of antibiotics (broth microdilution); format: cell-based; conditions: for Colistin & Cmpd MIC shift / Colistin MIC with compound: compound at 10 μM
Outline: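 Broth microdilution MIC shift assay against Acinetobacter baumannii. Overnight cultures in cation-adjusted Mueller Hinton broth at 37° C. were sub-cultured 1:200, grown to OD600=0.5 to 0.8, diluted to OD600=0.01, and added (50 μL) to wells holding 50 μL of 2× antibiotic stocks for a starting OD600 of 0.005. After 18 to 20 h at 37° C. with shaking, OD600 was read to obtain MICs.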

Serratia marcescens = assay: Colistin MIC / MIC shift with compound at 10 μM (isolate panel, Table 19); format: cell-based; conditions: Serratia marcescens 6147, Colistin-R
Providencia stuartii = assay: as above; format: cell-based; conditions: Providencia stuartii 6644, Colistin-R
Klebsiella pneumoniae = assay: MIC shift assay of antibiotics (broth microdilution); format: cell-based; conditions: for Colistin & Cmpd MIC shift / Colistin MIC with compound: compound at 10 μM
Description: (§1) Minimum inhibitory concentration (MIC) shift assays were performed to determine if the test compounds could alter the MIC of existing antibacterial drugs (e.g., ciprofloxacin and colistin) for E. coli, Acinetobacter baumannii, Klebsiella pneumoniae, Pseudomonas aeruginosa, and Enterobacter cloacae. The MIC shift assay is based on the standard broth microdilution MIC determination protocol of Wiegand et al, Nat Protoc. 3(2):163-75 (2008), with slight modifications that allow for the screening of up to seven test compounds in a single plate.
(§2) On the day before an assay, bacteria were grown overnight in cation-adjusted Mueller Hinton broth (CAMHB; Teknova, Hollister, Calif.) at 37° C. in an orbital shaker and sub-cultured at a 1:200 dilution the following morning. The cells were grown to OD600=0.5 to 0.8 and then diluted to OD600=0.01. From a serial dilution of each antibiotic at (50 μL of 2× concentrated stock solutions) several concentrations were added to the wells of a sterile, transparent round-bottom 96-well plate (Phenix Research Products, Candler, N.C.), and diluted cells (50 μL) were added to the plates for a starting OD600 of 0.005. Then, a test compound (2.5 μL) was added to each well to give a final concentration of 4 or 10 μM. A row of wells lacking test compound but containing the antibiotic was used to determine the MIC of that antibiotic alone. A column of wells lacking both antibiotic and test compound served as a growth control, and an additional column containing only CAMHB was included as a sterile blank control.
(§3) The plates were incubated for 18 to 20 h at 37° C. in an orbital shaker, and the cell density (OD600) was determined the following day in a microplate reader (PolarStar Optima, BMG Labtech). The MIC shift was determined by comparing the MIC of the antibiotic alone to the MIC of the antibiotic plus test compound.

E. coli = assay: as above; format: cell-based
Description: as §1, §2, §3

Pseudomonas aeruginosa = assay: as above; format: cell-based; conditions: for Colistin & Cmpd MIC shift / Colistin MIC with compound: compound at 10 μM
Description: as §1, §2, §3

Ab23 = assay: Time-kill assay with colistin and potentiator; format: cell-based, Acinetobacter baumannii; set-up: time-kill: concentration of potentiator required for effect: unit not given here
Description: Colistin and potentiator were diluted to 1000× final concentrations in water and DMSO, respectively. Then, 3 μl of the appropriate dilutions were added to culture tubes. An overnight culture of Ab23 was diluted to 10^6 CFU/ml, and 3 mL of cells were added to the tubes. The cultures were incubated at 37° C. in an orbital shaker. An aliquot of the starting inoculum was serially diluted in CAMHB and spread on LB agar plates for CFU determination. At 2, 4, 8, and 24 hours, aliquots were removed from each of the culture tubes, diluted, and spread LB agar plates. The plates were incubated overnight at 37° C. The following day, the number of CFUs on each plate was counted, and the number of bacterial in each culture condition was calculated. Colistin (“C”) was tested at 2 and 8 µg/mL. The select compounds (“P”) were tested at 2 and 10 µg/mL. The dotted line indicates the limit of detection.

[2] = system: panel of Gram-negative bacteria with different colistin susceptibilities; assay: Fractional inhibitory concentration index (FICI) checkerboard assay with colistin; format: cell-based; conditions: for FICI Values of Colistin and Potentiator in Resistant Bacteria: FICI values of ≦0.5 indicate synergy
Description: The fractional inhibitory concentration index (FICI) was determined in combination with colistin using the broth microdilution susceptibility test method as described by the CLSI (Methods for Dilution Antimicrobial Susceptibility Tests for Bacteria That Grow Aerobically; Approved Standard-Ninth Edition. 2012. CLSI document M07-A9. CLIS, 940 West Valley Road, Suite 1400, Wayne, Pa. 19087-1898 USA). This checkerboard assay was set up with decreasing concentrations of colistin across the plate from left to right and decreasing concentrations of potentiator from top to bottom. The FICI values were then calculated using the methods of Lorian et al. (Antibiotics in Laboratory Medicine—Fifth Edition. 2005. Lippincott, Williams, & Wilkins, Philadelphia, Pa.). A panel of Gram-negative bacteria with different colistin susceptibilities were tested.
Each of the tested compounds synergized with colistin in the three species of colistin-resistant bacteria tested.

[3] = Staphylococcus aureus ATCC 43300 (MMX 5999), MRSA
[4] = Acinetobacter baumannii ATCC 19606 (MMX 1630), Colistin-S
[5] = Acinetobacter baumannii Ab23, Colistin-R
[6] = Klebsiella pneumoniae 2237, Colistin-R
[7] = Klebsiella pneumoniae ATCC 13883 (MMX 214), Colistin-S
[8] = Escherichia coli ATCC 25922 (MMX 102), QC, Colistin-S, compound at 10 μM
[9] = Pseudomonas aeruginosa 1582, Colistin-I
[10] = Pseudomonas aeruginosa 6977, Colistin-R
[11] = Pseudomonas aeruginosa ATCC 27853 (MMX 103), QC, Colistin-S
[12] = colistin-resistant A. baumannii
[13] = colistin-resistant K. pneumoniae
[14] = colistin-resistant P. aeruginosa

SMILES: Cc1cccc2c(NCCCN(C)C)nc(-c3cc(-c4ccccc4)cc(C(F)(F)F)c3)nc12 [compound 343]
- MIC, agent alone (Proteus vulgaris): > 32 µg/mL
- Colistin & Cmpd MIC shift (Proteus vulgaris; compound at 10 μM): 4
- Colistin MIC with compound (Proteus vulgaris; compound at 10 μM): > 16 µg/mL
- MIC, agent alone (Staphylococcus aureus): 1 µg/mL
- MIC, agent alone (Staphylococcus aureus; [3]): 1 µg/mL
- Colistin & Cmpd MIC shift (Staphylococcus aureus; [3]): 4267
- Colistin MIC with compound (Staphylococcus aureus; [3]): ≤ 0.015 µg/mL
- Colistin & Cmpd MIC shift (Staphylococcus aureus): 4267
- Colistin MIC with compound (Staphylococcus aureus): ≤ 0.015 µg/mL
- MIC, agent alone (Burkholderia cepacia): > 32 µg/mL
- Colistin & Cmpd MIC shift (Burkholderia cepacia; compound at 10 μM): 4
- Colistin MIC with compound (Burkholderia cepacia; compound at 10 μM): > 16 µg/mL
- Colistin MIC Shift ([1]; A. baumannii (MDR Ab), compd. concentration 4.0 μM, colistin MIC 0.5-1.0 μg/mL): 8x
- MIC, agent alone [1, 4]: 16 µg/mL
- Colistin & Cmpd MIC shift [1, 4]: 17
- Colistin MIC with compound [1, 4]: 0.015 µg/mL
- MIC, agent alone [1, 5]: 8 µg/mL
- Colistin & Cmpd MIC shift [1, 5]: 4267
- Colistin MIC with compound [1, 5]: 0.015 µg/mL
- colistin MIC shift, Ab23 at (compd concentration) ([1]; compound concentration 2 μM, fold shift of colistin MIC, nc = no changeover or no shift): 8-16x
- MIC, agent alone (Serratia marcescens): > 32 µg/mL
- Colistin & Cmpd MIC shift (Serratia marcescens; compound at 10 μM): 256
- Colistin MIC with compound (Serratia marcescens; compound at 10 μM): 0.25 µg/mL
- MIC, agent alone (Providencia stuartii): > 32 µg/mL
- Colistin & Cmpd MIC shift (Providencia stuartii; compound at 10 μM): 4
- Colistin MIC with compound (Providencia stuartii; compound at 10 μM): > 16 µg/mL
- MIC, agent alone (Klebsiella pneumoniae; [6]): > 32 µg/mL
- Colistin & Cmpd MIC shift (Klebsiella pneumoniae; [6]): 128
- Colistin MIC with compound (Klebsiella pneumoniae; [6]): 0.25 µg/mL
- MIC, agent alone (Klebsiella pneumoniae; [7]): > 32 µg/mL
- Colistin & Cmpd MIC shift (Klebsiella pneumoniae; [7]): 8
- Colistin MIC with compound (Klebsiella pneumoniae; [7]): 0.015 µg/mL
- Colistin MIC Shift (E. coli; E. coli (SCR1), compd. concentration 4.0 μM, colistin MIC 0.5-1.0 μg/mL): 16x
- MIC, agent alone (E. coli; Escherichia coli ATCC 25922 (MMX 102), QC, Colistin-S): > 32 µg/mL
- Colistin & Cmpd MIC shift (E. coli; [8]): 8
- Colistin MIC with compound (E. coli; [8]): 0.015 µg/mL
- MIC, agent alone (Pseudomonas aeruginosa; [9]): > 32 µg/mL
- Colistin & Cmpd MIC shift (Pseudomonas aeruginosa; [9]): 2
- Colistin MIC with compound (Pseudomonas aeruginosa; [9]): 0.5 µg/mL
- MIC, agent alone (Pseudomonas aeruginosa; [10]): > 32 µg/mL
- Colistin & Cmpd MIC shift (Pseudomonas aeruginosa; [10]): 64
- Colistin MIC with compound (Pseudomonas aeruginosa; [10]): 1 µg/mL
- MIC, agent alone (Pseudomonas aeruginosa; [11]): > 32 µg/mL
- Colistin & Cmpd MIC shift (Pseudomonas aeruginosa; [11]): 4
- Colistin MIC with compound (Pseudomonas aeruginosa; [11]): 0.06 µg/mL

SMILES: Clc1ccc(/C=C/c2c[nH]c3ccc(Br)cc23)cc1Cl [compound I]
- time-kill: effect on Ab23 cells in the absence of colistin (Ab23; compound alone (compound III at 10 μM), FIGS. 2-4): had no effect on the cells
- time-kill: effect in the presence of colistin (Ab23; compound plus colistin, Ab23, FIGS. 2-4): potent synergists of colistin
- time-kill: concentration of potentiator required for effect (Ab23; in combination with colistin, Ab23, FIG. 2): 2
- MIC Shift of Colistin and Potentiator in Resistant Bacteria [2, 12]: 133 x
- FICI Values of Colistin and Potentiator in Resistant Bacteria [2, 12]: 0.25
- MIC Shift of Colistin and Potentiator in Resistant Bacteria [2, 13]: 64 x
- FICI Values of Colistin and Potentiator in Resistant Bacteria [2, 13]: 0.30
- MIC Shift of Colistin and Potentiator in Resistant Bacteria [2, 14]: 16 x
- FICI Values of Colistin and Potentiator in Resistant Bacteria [2, 14]: 0.26
